Experiments:
[1] = Inhibition of HDAC in human HeLa cell nuclear extracts using (Boc-Lys(Ac)-AMC as substrate preincubated for 5 mins followed by substrate addition measured after 30 mins by fluorescence assay; type: cell-based
[2] = test system: MOLT-4; assay: Antiproliferative activity against human MOLT4 cells after 48 hrs by MTT assay; type: functional, cell-based; settings: MOLT-4, 48 h
[3] = test system: K562; assay: Antiproliferative activity against human K562 cells after 48 hrs by MTT assay; type: functional, cell-based; settings: K562, 48 h
[4] = test system: HEL; assay: Antiproliferative activity against human HEL cells after 48 hrs by MTT assay; type: functional, cell-based
[5] = test system: HeLa; assay: Antiproliferative activity against human HeLa cells after 48 hrs by MTT assay; type: functional, cell-based
[6] = test system: PC-3; assay: Antiproliferative activity against human PC3 cells after 48 hrs by MTT assay; type: functional, cell-based; settings: PC-3, 48 h
[7] = target: Histone deacetylase 1 (Homo sapiens, UniProt Q13547); assay: Inhibition of HDAC1 (unknown origin) using Ac-Leu-GlyLys(Ac)-AMC as substrate preincubated for 5 mins followed by substrate addition measured after 30 mins by fluorescence assay
[8] = target: Histone deacetylase 2 (Homo sapiens, UniProt Q92769); assay: Inhibition of HDAC2 (unknown origin) using Ac-Leu-GlyLys(Ac)-AMC as substrate preincubated for 5 mins followed by substrate addition measured after 30 mins by fluorescence assay
[9] = target: Histone deacetylase 3 (Homo sapiens, UniProt O15379); assay: Inhibition of HDAC3 (unknown origin) using Ac-Leu-GlyLys(Ac)-AMC as substrate preincubated for 5 mins followed by substrate addition measured after 30 mins by fluorescence assay
[10] = target: T1, Protein deacetylase HDAC6 (Homo sapiens, UniProt Q9UBN7); assay: Inhibition of HDAC6 (unknown origin) using Ac-Leu-GlyLys(Ac)-AMC as substrate preincubated for 5 mins followed by substrate addition measured after 30 mins by fluorescence assay
T1 sequence (Q9UBN7 whole entry): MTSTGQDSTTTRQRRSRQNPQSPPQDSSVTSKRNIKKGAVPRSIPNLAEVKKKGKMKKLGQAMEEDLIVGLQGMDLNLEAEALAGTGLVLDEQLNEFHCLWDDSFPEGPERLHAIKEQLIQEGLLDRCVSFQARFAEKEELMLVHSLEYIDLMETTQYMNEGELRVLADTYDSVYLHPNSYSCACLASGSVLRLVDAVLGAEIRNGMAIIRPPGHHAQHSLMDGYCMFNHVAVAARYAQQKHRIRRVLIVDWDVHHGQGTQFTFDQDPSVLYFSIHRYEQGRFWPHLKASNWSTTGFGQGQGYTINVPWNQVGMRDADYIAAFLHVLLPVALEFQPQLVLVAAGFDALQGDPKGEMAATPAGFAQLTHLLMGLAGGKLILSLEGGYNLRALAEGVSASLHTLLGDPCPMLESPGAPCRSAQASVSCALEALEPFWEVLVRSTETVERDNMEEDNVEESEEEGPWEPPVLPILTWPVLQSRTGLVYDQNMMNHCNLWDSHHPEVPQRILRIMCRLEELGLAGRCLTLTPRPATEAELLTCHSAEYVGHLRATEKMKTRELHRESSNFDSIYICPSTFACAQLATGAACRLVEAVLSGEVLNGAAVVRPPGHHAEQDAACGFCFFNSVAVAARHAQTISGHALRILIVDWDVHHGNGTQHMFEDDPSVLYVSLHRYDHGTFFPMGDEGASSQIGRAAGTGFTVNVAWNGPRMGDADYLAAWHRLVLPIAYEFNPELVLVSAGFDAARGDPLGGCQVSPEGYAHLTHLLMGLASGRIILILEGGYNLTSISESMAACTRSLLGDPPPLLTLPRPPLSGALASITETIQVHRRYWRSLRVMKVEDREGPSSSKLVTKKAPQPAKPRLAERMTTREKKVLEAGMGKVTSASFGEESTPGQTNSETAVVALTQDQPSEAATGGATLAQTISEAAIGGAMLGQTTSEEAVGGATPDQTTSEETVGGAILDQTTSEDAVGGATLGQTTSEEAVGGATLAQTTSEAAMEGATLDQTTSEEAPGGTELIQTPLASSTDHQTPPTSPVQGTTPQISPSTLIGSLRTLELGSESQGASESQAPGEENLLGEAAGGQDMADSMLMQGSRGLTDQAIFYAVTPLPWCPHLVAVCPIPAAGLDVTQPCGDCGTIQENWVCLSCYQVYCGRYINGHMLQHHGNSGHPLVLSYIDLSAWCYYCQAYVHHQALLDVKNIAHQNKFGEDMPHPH

Sequence of Histone deacetylase 3 (O15379 whole entry): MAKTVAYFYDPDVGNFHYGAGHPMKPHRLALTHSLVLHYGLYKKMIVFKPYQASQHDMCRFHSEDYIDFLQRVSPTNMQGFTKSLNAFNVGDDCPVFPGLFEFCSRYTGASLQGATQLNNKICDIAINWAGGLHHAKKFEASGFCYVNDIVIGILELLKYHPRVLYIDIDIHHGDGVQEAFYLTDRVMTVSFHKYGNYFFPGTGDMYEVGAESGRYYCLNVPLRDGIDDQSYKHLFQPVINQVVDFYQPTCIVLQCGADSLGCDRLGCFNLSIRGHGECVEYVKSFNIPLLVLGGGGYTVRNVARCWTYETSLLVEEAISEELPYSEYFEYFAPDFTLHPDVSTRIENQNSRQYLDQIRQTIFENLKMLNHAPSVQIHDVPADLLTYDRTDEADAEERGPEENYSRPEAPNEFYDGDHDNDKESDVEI
Sequence of Histone deacetylase 1 (Q13547 whole entry): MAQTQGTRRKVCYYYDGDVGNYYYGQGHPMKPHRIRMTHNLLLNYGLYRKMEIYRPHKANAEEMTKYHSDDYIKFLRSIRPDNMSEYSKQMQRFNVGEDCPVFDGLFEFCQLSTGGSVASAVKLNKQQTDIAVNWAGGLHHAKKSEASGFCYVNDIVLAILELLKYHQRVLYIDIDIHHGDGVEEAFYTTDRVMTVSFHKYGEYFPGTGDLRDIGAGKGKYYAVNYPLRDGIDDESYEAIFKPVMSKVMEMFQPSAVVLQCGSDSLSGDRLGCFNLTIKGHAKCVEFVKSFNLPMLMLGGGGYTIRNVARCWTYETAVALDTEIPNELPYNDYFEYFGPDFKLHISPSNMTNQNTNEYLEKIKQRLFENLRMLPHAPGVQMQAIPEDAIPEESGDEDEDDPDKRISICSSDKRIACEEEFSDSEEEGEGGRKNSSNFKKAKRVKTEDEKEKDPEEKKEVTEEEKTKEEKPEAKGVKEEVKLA
Sequence of Histone deacetylase 2 (Q92769 whole entry): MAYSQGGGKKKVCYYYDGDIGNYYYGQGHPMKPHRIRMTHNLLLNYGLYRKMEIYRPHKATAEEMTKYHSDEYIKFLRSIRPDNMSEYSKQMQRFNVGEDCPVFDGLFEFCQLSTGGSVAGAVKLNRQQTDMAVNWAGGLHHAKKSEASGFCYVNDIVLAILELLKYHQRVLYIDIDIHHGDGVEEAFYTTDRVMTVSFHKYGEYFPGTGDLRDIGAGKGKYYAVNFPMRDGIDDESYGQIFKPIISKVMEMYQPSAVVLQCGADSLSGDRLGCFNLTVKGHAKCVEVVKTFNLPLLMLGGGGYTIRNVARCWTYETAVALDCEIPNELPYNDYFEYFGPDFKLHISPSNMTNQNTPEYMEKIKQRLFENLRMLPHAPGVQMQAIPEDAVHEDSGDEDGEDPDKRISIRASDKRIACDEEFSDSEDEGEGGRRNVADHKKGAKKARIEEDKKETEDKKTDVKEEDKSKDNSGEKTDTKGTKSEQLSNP

Row | Structure (SMILES) | IC50 [1] | further results
1 | COc1cc(/C=C/C(=O)NO)ccc1OC[C@H](Cc1c[nH]c2ccccc12)NC(=O)c1ccccc1[N+](=O)[O-] | 75.7 nM | 
2 | COc1cc(/C=C/C(=O)NO)ccc1OC[C@H](Cc1c[nH]c2ccccc12)NC(=O)c1ccccc1F | 76.5 nM | 
3 | COc1cc(/C=C/C(=O)NO)ccc1OC[C@H](Cc1c[nH]c2ccccc12)NC(=O)c1ccc(Cl)cc1Cl | 95 nM | 
4 | COc1cc(/C=C/C(=O)NO)ccc1OC[C@H](Cc1c[nH]c2ccccc12)NC(=O)c1ccc([N+](=O)[O-])cc1 | 60.7 nM | 
5 | COc1cc(/C=C/C(=O)NO)ccc1OC[C@H](Cc1c[nH]c2ccccc12)NC(=O)c1ccccc1C | 102 nM | 
6 | COc1cc(/C=C/C(=O)NO)ccc1OC[C@H](Cc1c[nH]c2ccccc12)NC(=O)c1cccc(F)c1 | 60 nM | 
7 | COc1cc(/C=C/C(=O)NO)ccc1OC[C@H](Cc1c[nH]c2ccccc12)NC(=O)c1ccccc1Br | 62.2 nM | 
8 | COc1cc(/C=C/C(=O)NO)ccc1OC[C@H](Cc1c[nH]c2ccccc12)NC(=O)Cc1ccccc1 | 54.8 nM | 
9 | COc1cc(/C=C/C(=O)NO)ccc1OC[C@H](Cc1c[nH]c2ccccc12)NC(=O)c1ccccc1OC | 60 nM | 
10 | COc1cc(/C=C/C(=O)NO)ccc1OC[C@H](Cc1c[nH]c2ccccc12)NC(=O)c1ccc(Br)cc1Cl | 114 nM | 

Stronger by IC50 [1], values ahead:

Row | IC50 [1] | Structure (SMILES) | further results
11 | 48.6 nM | COc1cc(/C=C/C(=O)NO)ccc1OC[C@H](Cc1c[nH]c2ccccc12)NC(=O)c1ccc(F)cc1 | 
12 | 47.1 nM | COc1cc(/C=C/C(=O)NO)ccc1OC[C@H](Cc1c[nH]c2ccccc12)NC(=O)c1ccc(NC(C)=O)cc1O | 
13 | 42.4 nM | COc1cc(/C=C/C(=O)NO)ccc1OC[C@H](Cc1c[nH]c2ccccc12)NC(=O)CCCc1ccccc1 | 
14 | 34.4 nM | COc1cc(/C=C/C(=O)NO)ccc1OC[C@H](Cc1c[nH]c2ccccc12)NC(=O)c1cccc([N+](=O)[O-])c1 | 
15 | 24.2 nM | COc1cc(/C=C/C(=O)NO)ccc1OC[C@H](Cc1c[nH]c2ccccc12)NC(=O)c1cccc(C)c1 | 
16 | 23.3 nM | COc1cc(/C=C/C(=O)NO)ccc1OC[C@H](Cc1c[nH]c2ccccc12)NC(=O)c1ccc(Cl)cc1 | 
17 | 22.5 nM | COc1cc(/C=C/C(=O)NO)ccc1OC[C@H](Cc1c[nH]c2ccccc12)NC(=O)c1ccccc1Cl | 
18 | 21.7 nM | COc1cc(/C=C/C(=O)NO)ccc1OC[C@H](Cc1c[nH]c2ccccc12)NC(=O)CCc1ccccc1 | 
19 | 19.5 nM | COc1cc(/C=C/C(=O)NO)ccc1OC[C@H](Cc1c[nH]c2ccccc12)NC(=O)c1cccc(Br)c1 | 
20 | 15.8 nM | COc1cc(/C=C/C(=O)NO)ccc1OC[C@H](Cc1c[nH]c2ccccc12)NC(=O)c1ccccc1 | 
21 | 14.4 nM | COc1cc(/C=C/C(=O)NO)ccc1OC[C@H](Cc1c[nH]c2ccccc12)NC(=O)c1cccc(Cl)c1 | IC50 [2]: 60 nM; IC50 [3]: 280 nM; IC50 [4]: 130 nM; IC50 [5]: 430 nM; IC50 [6]: 1000 nM
22 | 14.1 nM | COc1cccc(C(=O)N[C@H](COc2ccc(/C=C/C(=O)NO)cc2OC)Cc2c[nH]c3ccccc23)c1 | 
23 | 12.1 nM | COc1cc(/C=C/C(=O)NO)ccc1OC[C@H](Cc1c[nH]c2ccccc12)NC(=O)c1ccc(Br)cc1 | IC50 [2]: 60 nM; IC50 [3]: 510 nM; IC50 [4]: 210 nM; IC50 [5]: 580 nM; IC50 [6]: 1250 nM
24 | 9.6 nM | COc1ccc(C(=O)N[C@H](COc2ccc(/C=C/C(=O)NO)cc2OC)Cc2c[nH]c3ccccc23)cc1 | IC50 [2]: 60 nM; IC50 [7]: 17.5 nM; IC50 [3]: 280 nM; IC50 [8]: 59.5 nM; IC50 [9]: 7.1 nM; IC50 [4]: 130 nM; IC50 [5]: 430 nM; IC50 [6]: 1000 nM; IC50 [10]: 87 nM
25 | 8.1 nM | COc1cc(/C=C/C(=O)NO)ccc1OC[C@H](Cc1c[nH]c2ccccc12)NC(=O)c1ccc(C)cc1 | IC50 [2]: 40 nM; IC50 [3]: 320 nM; IC50 [4]: 150 nM; IC50 [5]: 310 nM; IC50 [6]: 1090 nM
